# Measured values reported in ChEMBL document CHEMBL4813949, “Hypothemycin-Type Resorcylic Acid Lactones with Immunosuppressive Activities from a Podospora sp” (J Nat Prod, 2021).
# Test system: Splenocyte
# Assay: Cytotoxicity against BALB/c mouse splenocytes at 50 uM incubated for 48 hrs by MTT assay
# Format: cell-based
row,Compound,Activity
1,COc1cc(O)c2c(c1)/C=C/C[C@H](O)C(=O)CCCC[C@H](C)OC2=O,Non-Toxic
2,COc1cc(O)c2c(c1)/C=C/CC[C@H](O)[C@H](O)CCC[C@H](C)OC2=O,Non-Toxic
3,C[C@H](O)C[C@@H]1CCCCCc2cc(O)cc(O)c2C(=O)O1,Non-Toxic
4,COc1cc(O)c2c(c1)/C=C/CCC(=O)[C@H](O)CCC[C@H](C)OC2=O,Non-Toxic
5,COc1cc(O)c2c(c1)/C=C/C[C@H](O)[C@H](O)C(=O)/C=C/C[C@H](C)OC2=O,Non-Toxic
6,COc1cc(O)c2c(c1)/C=C/CCC(=O)[C@@H](O)CCC[C@H](C)OC2=O,Non-Toxic
7,COc1cc(O)c2c(c1)[C@H]1O[C@@H]1C[C@H](O)[C@H](O)C(=O)CCC[C@H](C)OC2=O,Non-Toxic
8,COc1cc(O)c2c(c1)/C=C/C[C@H](O)[C@H](O)C(=O)C[C@H](O)C[C@H](C)OC2=O,Non-Toxic
9,COc1cc(O)c2c(c1)/C=C/C[C@@H](O)[C@H](O)C(=O)/C=C/C[C@H](C)OC2=O,Non-Toxic
10,COc1cc(O)c2c(c1)/C=C/C[C@H](O)[C@@H](O)C(=O)/C=C/C[C@H](C)OC2=O,Non-Toxic

# Test system: Splenocyte
# Assay: Immunosuppressive activity in BALB/c mouse splenocytes assessed as inhibition of concanavalin A-stimulated T-cell proliferation incubated for 48 hrs by MTT assay
# Format: functional, cell-based
row,Compound,IC50
1,COc1cc(O)c2c(c1)/C=C/C[C@H](O)C(=O)CCCC[C@H](C)OC2=O,> 50 µM
2,COc1cc(O)c2c(c1)/C=C/CC[C@H](O)[C@H](O)CCC[C@H](C)OC2=O,> 50 µM
3,C[C@H](O)C[C@@H]1CCCCCc2cc(O)cc(O)c2C(=O)O1,> 50 µM
4,COc1cc(O)c2c(c1)/C=C/CCC(=O)[C@H](O)CCC[C@H](C)OC2=O,25.1 µM
5,COc1cc(O)c2c(c1)/C=C/C[C@H](O)[C@H](O)C(=O)/C=C/C[C@H](C)OC2=O,6 µM
6,COc1cc(O)c2c(c1)/C=C/CCC(=O)[C@@H](O)CCC[C@H](C)OC2=O,> 50 µM
7,COc1cc(O)c2c(c1)[C@H]1O[C@@H]1C[C@H](O)[C@H](O)C(=O)CCC[C@H](C)OC2=O,8.1 µM
8,COc1cc(O)c2c(c1)/C=C/C[C@H](O)[C@H](O)C(=O)C[C@H](O)C[C@H](C)OC2=O,18.8 µM
9,COc1cc(O)c2c(c1)/C=C/C[C@@H](O)[C@H](O)C(=O)/C=C/C[C@H](C)OC2=O,11.4 µM
10,COc1cc(O)c2c(c1)/C=C/C[C@H](O)[C@@H](O)C(=O)/C=C/C[C@H](C)OC2=O,24.1 µM

# Test system: Splenocyte
# Assay: Immunosuppressive activity in BALB/c mouse splenocytes assessed as inhibition of LPS-stimulated B-cell proliferation incubated for 48 hrs by MTT assay
# Format: functional, cell-based
row,Compound,IC50
1,COc1cc(O)c2c(c1)/C=C/C[C@H](O)C(=O)CCCC[C@H](C)OC2=O,> 50 µM
2,COc1cc(O)c2c(c1)/C=C/CC[C@H](O)[C@H](O)CCC[C@H](C)OC2=O,> 50 µM
3,C[C@H](O)C[C@@H]1CCCCCc2cc(O)cc(O)c2C(=O)O1,> 50 µM
4,COc1cc(O)c2c(c1)/C=C/CCC(=O)[C@H](O)CCC[C@H](C)OC2=O,27.7 µM
5,COc1cc(O)c2c(c1)/C=C/C[C@H](O)[C@H](O)C(=O)/C=C/C[C@H](C)OC2=O,6.2 µM
6,COc1cc(O)c2c(c1)/C=C/CCC(=O)[C@@H](O)CCC[C@H](C)OC2=O,> 50 µM
7,COc1cc(O)c2c(c1)[C@H]1O[C@@H]1C[C@H](O)[C@H](O)C(=O)CCC[C@H](C)OC2=O,8.5 µM
8,COc1cc(O)c2c(c1)/C=C/C[C@H](O)[C@H](O)C(=O)C[C@H](O)C[C@H](C)OC2=O,21.9 µM
9,COc1cc(O)c2c(c1)/C=C/C[C@@H](O)[C@H](O)C(=O)/C=C/C[C@H](C)OC2=O,6.8 µM
10,COc1cc(O)c2c(c1)/C=C/C[C@H](O)[C@@H](O)C(=O)/C=C/C[C@H](C)OC2=O,29.1 µM
